These results are taken from US10208056B2, “Condensed tricyclic compounds as protein kinase inhibitors” (FUNDACIÓN DEL SECTOR PÚBLICO ESTATAL CENTRO NACIONAL DE …, priority 2015, dated 2019).

One assay addresses CDK8/Cyclin C (Homo sapiens (Human), UniProt P49336). Kind of assay: CDK8/Cyclin C binding assay (LanthaScreen Eu-Kinase Binding Assay). To be noted: binding assay. On the procedure:
The enzyme has been purchase from Invitrogen (PV4402) as a dimer of full-length His-tagged recombinant human proteins.
Assays were performed in 384-well plates. The final read out was generated using an EnVision plate reader (Perkin-Elmer).

In a further assay the target is CDK19/Cyclin C (Homo sapiens (Human), UniProt Q9BWU1). Kind of assay: CDK19/Cyclin C binding assay (LanthaScreen Eu-Kinase Binding Assay). As to conditions: read-out: CDK19-CYCC IC50. Put shortly:
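LanthaScreen TR-FRET tracer-displacement format with 2 nM Cdk19-Cyclin C, 20 nM tracer and 2 nM Eu-anti-GST antibody. The buffer was 50 mM HEPES pH 7.5, 10 mM MgCl2, 1 mM EGTA, 0.01% Brij-35, with 1% DMSO final. Compounds were tested as 1:3 serial dilutions and incubated for 60 min at 25 °C.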

In assay [1] the target is T1, intracellular CDK8 (Homo sapiens (Human), UniProt P49336). Kind of assay: Cellular CDK8 inhibition assay, western blot P-STAT1 (S727) in IFN-γ treated SW620 cells. It counts as cell-based. As to conditions: SW620, IFNγ treated, semiquantitative; read-out: SW620 P-STAT1(S727) w IFNγ. The method, then:
Compounds can be screened for their ability to inhibit intracellular CDK8 using a western blot assay to detect phosphorylation of the CDK8 substrate STAT1 (S727) in IFN-γ treated cells. SW620 cells are plated at 1*10^6 cells per well in 6-well plates (Solmeglas 13118) in RPMI media (Sigma-Aldrich R6504) supplemented with 10% foetal bovine serum (Sigma-Aldrich F7524), Penicillin/Streptomycin solution diluted 1:100 (Gibco 15070-063), and fungizone (Gibco, 15290-018), and allowed to adhere overnight at 37° C. in 5% CO2. Compounds are then added to the cell media from a final concentration of 10 μM in 10-fold serial dilutions and the cells are incubated at 37° C. in 5% CO2. After 1 hour, IFNγ (R&D systems Ref. RYD-285-IF-100) is added to a final concentration of […]. After 3 hours of treatment with IFNγ, the cells are washed in PBS, lysed adding 100 μl of protein lysis buffer (62.5 mM Tris pH 6.8 al 6.25%, 2% SDS y 10% glycerol) incubation 10 minutes at room temperature and heating at 95° C. 10 min. The protein content of the lysates is determined by DC protein assay (Biorad, Ref. 5000116). The proteins are resolved by SDS-PAGE and transferred to nitrocellulose membrane (VWR International eurolab, Ref. 732-4007). The membranes are incubated overnight at 4° C. with antibodies specific for total STAT1 (BD Transduction laboratory #610115), phosphoserine-727 STAT1 (Cell Signaling Ref. 9177) they are washed and then incubated with IRDye800 conjugated anti-mouse (Pierce/Cultek, 35521) and Alexa Fluor 680 goat anti-rabbit IgG secondary antibodies (Invitrogen, A21076). The bands are visualized and quantified using an Odyssey infrared imaging system (Li-Cor Biosciences). The percentage of phosphorylated STAT1 vs total STAT1 in cells treated with IFNγ is taken as hundred percent of phosphorylation. The percentage of STAT1 phosphorylation is finally plotted against concentration for each compound and EC50s for intracellular CDK8 inhibition are calculated using ActivityBase from IDBS.

Assay [2] addresses T1, intracellular CDK8. Kind of assay: Endogenous phosphoSTAT1 inhibition in SW620 cells growing in 10% FBS. It counts as cell-based. As to conditions: semiquantitative, read-out: SW620 P-STAT1(S727). On the procedure:
Endogenous phosphoSTAT1 inhibition can be screened in cells growing in 10% FBS. Cells are plated as described before and treated for 8 h with compounds as described before. Then cells are lysated and phospho STAT1 is evaluated as described before. The percentage of phosphorylated STAT1 vs total STAT1 in cells treated with DMSO is taken as hundred percent of phosphorylation. The percentage of STAT1 phosphorylation is finally plotted against concentration for each compound and EC50s for intracellular CDK8 inhibition are calculated using ActivityBase from IDBS.

The subject of another assay is MV4:11. Kind of assay: In vitro cell proliferation assay (CellTiter-Glo), MV4:11. The format is cell-based. To be noted: Homo sapiens, MV4-11; growth inhibition, semiquantitative; read-out: GI50 MV4:11.
The test system of the next assay is MDA-MB-231. Kind of assay: In vitro cell proliferation assay (CellTiter-Glo), MDA-MB-231. The format is cell-based. To be noted: Homo sapiens, MDA-MB-231; growth inhibition, semiquantitative; read-out: GI50 MDA-MB-231.
Assay [3] concerns SW620. Kind of assay: In vitro cell proliferation assay (CellTiter-Glo), SW620. It counts as cell-based, human. As to conditions: Homo sapiens, SW-620; growth inhibition, semiquantitative; read-out: GI50 SW620.
A further assay relates to Molm13. Kind of assay: In vitro cell proliferation assay (CellTiter-Glo), Molm13. The format is cell-based. To be noted: Homo sapiens, MOLM-13; growth inhibition, semiquantitative; read-out: GI50 Molm13.
The subject of the next assay is SW620 cells. Kind of assay: Colony formation assay. The format is cell-based, human. As to conditions: SW620 cells treated 11 days. The method, then: The in vitro potency of the compounds was measured by colony formation assays. SW620 cells in logarithmic growth phase are plated at 800 cells per well in 6-well plates (Solmeglas 13118) in RPMI media (Sigma-Aldrich R6504) supplemented with 10% foetal bovine serum (Sigma-Aldrich F7524), Penicillin/Streptomycin solution diluted 1:100 (Gibco 15070-063), and fungizone (Gibco, 15290-018), and allowed to adhere overnight at 37° C. in 5% CO2. Compounds are then added to the cell media from a final concentration of 10 μM in 10-fold serial dilutions and the cells are incubated at 37° C. in 5% CO2. Every three days the medium is changed by fresh medium and compounds are added again. After 11 days, colonies are washed with PBS and fixed in 0.5% crystal violet (Sigma-Aldrich Ref. V5265), 6% glutaraldehide (Sigma-Aldrich Ref. G5882) for 30 minutes. After extensive washing, colonies are dissolved in 2 ml of 10% glacial acetic acid (Sigma-Aldrich Ref. 537020) and absorbance at 590 nm is measured in the Victor 1420 Multilabel Counter (Perkin Elmer). The absorbance in cells treated with DMSO is taken as hundred percent of proliferation. The percentage of proliferation is finally plotted against concentration for each compound and EC50s for colony formation inhibition are calculated using ActivityBase from IDBS.

Assay [4] relates to H3T3ph in tumoral cells from colon, breast and cervix. As to conditions: dose dependent; cited from earlier work.
Assay [5] concerns SW620. Kind of assay: Combination assay, SW620. The format is cell-based, human. As to conditions: Homo sapiens, SW-620; SW620, chemotherapeutic alone; read-out: Chemo GI50. The gist of the method:
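Cells treated with example compounds combined with chemotherapeutic agents, proliferation read by CellTiter-Glo. Combination index from the Chou–Talalay method (CI <0.8 synergy, 0.8–1.2 additivity, >1.2 antagonism); EC50 of the combination also derived alongside single-agent EC50s.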

For a further assay, the system named is MDAMB231. Kind of assay: Combination assay, MDAMB231. The format is cell-based. To be noted: Homo sapiens, MDA-MB-231; MDAMB231, chemotherapeutic alone; read-out: Chemo GI50. The method, then: (§1) The combination index (CI) of combinations of certain example compounds and various chemotherapeutic agents in the CellTitetI-Glo® in vitro cell proliferation assays may be tested. A combination index score is calculated by the Chou and Talalay method (CalcuSyn software, Biosoft). The strength of synergy is scored using the ranking system Chou and Talalay: CI less than 0.8 indicates synergy, CI between 0.8 and 1.2 indicates additivity and CI greater than 1.2 indicates antagonism.
(§2) The EC50 values of representative combinations are also calculated. The individually measured EC50 values of the chemotherapeutic agent and the example compounds are compared to the EC50 value of the combination. The cell lines are characterised by tumor type. Combination assays are performed as described in: “Pim 1 kinase inhibitor ETP-45299 suppresses cellular proliferation and synergizes with PI3K inhibition”. Blanco-Aparicio, Carmen; Collazo, Ana Maria Garcia; Oyarzabal, Julen; Leal, Juan F.; Albaran, Maria Isabel; Lima, Francisco Ramos; Pequeno, Belen; Ajenjo, Nuria; Becerra, Mercedes; Alfonso, Patricia; Reymundo, Maria Isabel; Palacios, Irene; Mateos, Genoveva; Quinones, Helena; Corrionero, Ana; Carnero, Amancio; Pevarello, Paolo; Lopez, Ana Rodriguez; Fominaya, Jesus; Pastor, Joaquin; Bischoff, James R. Cancer Letters (Shannon, Ireland) 2011, 300(2), 145-153

Another assay concerns A549. Kind of assay: Combination assay, A549. The format is cell-based. To be noted: Homo sapiens; A549, chemotherapeutic alone; read-out: Chemo GI50. On the procedure:
as §1, §2

A further assay relates to SKMEL19. Kind of assay: Combination assay, SKMEL19. To be noted: Homo sapiens, SK-MEL19; SKMEL19, chemotherapeutic alone; read-out: Chemo GI50. It counts as cell-based. The method, then: as §1, §2
Another assay relates to BXPC-3. Kind of assay: Combination assay, BXPC-3. As to conditions: Homo sapiens; BXPC-3, chemotherapeutic alone; read-out: Chemo GI50. The format is cell-based. On the procedure: as §1, §2
The next assay deals with Haspin kinase (Homo sapiens (Human), UniProt Q8TF76). Kind of assay: Haspin kinase assay (ADP-Glo). As to conditions: ATP 150 μM. The format is biochemical. Put shortly: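 ADP-Glo luminescence measured the intrinsic ATPase activity, without peptide substrate, of the GST-tagged human Haspin kinase domain (20 nM) at 150 μM ATP. Reactions ran 60 min at 30 °C in HEPES pH 7.4 buffer with 10 mM MgCl2 and 1% DMSO. Inhibition was calculated against no-compound controls across 1:3 dilution series.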

In a further assay the target is intracellular HASPIN (Homo sapiens (Human), UniProt Q8TF76). Kind of assay: Cellular HASPIN inhibition assay, western blot phospho H3T3 in synchronized SW620 cells. It counts as cell-based. To be noted: semiquantitative, read-out: SW620 PH3(T3) in synchronized cells. The method, then:
Compounds can be screened for their ability to inhibit intracellular HASPIN using a western blot assay to detect phosphorylation of the HASPIN substrate H3T3 in synchronized cells. SW620 cells are plated at 200000 cells per well in 6-well plates (Solmeglas 13118) in RPMI media (Sigma-Aldrich R6504) supplemented with 10% foetal bovine serum (Sigma-Aldrich F7524), Penicillin/Streptomycin solution diluted 1:100 (Gibco 15070-063), and fungizone (Gibco, 15290-018), and allowed to adhere overnight at 37° C. in 5% CO2. Cells are then treated 16 h hours with Nocadazole (Sigma-Aldrich M1404) at 250 ng/ml to arrest them in mitosis. Proteasoma inhibitor MG132 (Sigma-Aldrich C2211) is added to a final concentration of […] to keep cells arrested in mitosis. Compounds are then added to the cell media from a final concentration of 10 μM in 10-fold serial dilutions and the cells are incubated at 37° C. in 5% CO2. After 1 hour and 30 minutes of treatment with the compounds, the cells are washed in PBS, lysed adding 100 μl of protein lysis buffer (62.5 mM Tris pH 6.8 al 6.25%, 2% SDS y 10% glycerol) incubation 10 minutes at room temperature and heating at 95° C. 10 min. The protein content of the lysates is determined by DC protein assay (Biorad, Ref. 5000116). The proteins are resolved by SDS-PAGE and transferred to nitrocellulose membrane (VWR International eurolab, Ref. 732-4007). The membranes are incubated overnight at 4° C. with antibodies specific for total H3 (Millipore #07424), phosphothreonine-3 H3 (Cell Signaling Ref. 14269) they are washed and then incubated with IRDye800 conjugated anti-mouse (Pierce/Cultek, 35521) and Alexa Fluor 680 goat anti-rabbit IgG secondary antibodies (Invitrogen, A21076). The bands are visualized and quantified using an Odyssey infrared imaging system (Li-Cor Biosciences). The percentage of phosphorylated H3 vs total H3 in synchronized cells is taken as hundred percent of phosphorylation. The percentage of H3 phosphorylation is finally plotted against concentration for each compound and EC50s for intracellular HASPIN inhibition are calculated using ActivityBase from IDBS.

Each structure is given as a SMILES string. Where only a bound is given, the exact number is not on record here.

T1 sequence (P49336 whole entry): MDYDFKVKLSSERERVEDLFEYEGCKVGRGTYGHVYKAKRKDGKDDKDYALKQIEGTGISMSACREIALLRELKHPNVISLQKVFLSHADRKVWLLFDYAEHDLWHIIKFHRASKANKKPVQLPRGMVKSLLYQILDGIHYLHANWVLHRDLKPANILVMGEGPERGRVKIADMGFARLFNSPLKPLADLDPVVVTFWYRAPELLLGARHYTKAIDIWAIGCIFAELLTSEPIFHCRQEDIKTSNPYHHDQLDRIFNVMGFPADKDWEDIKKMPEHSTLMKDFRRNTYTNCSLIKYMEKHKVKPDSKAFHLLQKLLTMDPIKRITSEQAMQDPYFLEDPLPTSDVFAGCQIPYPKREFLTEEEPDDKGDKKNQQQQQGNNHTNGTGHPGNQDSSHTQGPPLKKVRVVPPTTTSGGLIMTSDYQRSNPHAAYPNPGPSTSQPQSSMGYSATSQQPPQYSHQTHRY
T1 sequence (P24863 whole entry partner): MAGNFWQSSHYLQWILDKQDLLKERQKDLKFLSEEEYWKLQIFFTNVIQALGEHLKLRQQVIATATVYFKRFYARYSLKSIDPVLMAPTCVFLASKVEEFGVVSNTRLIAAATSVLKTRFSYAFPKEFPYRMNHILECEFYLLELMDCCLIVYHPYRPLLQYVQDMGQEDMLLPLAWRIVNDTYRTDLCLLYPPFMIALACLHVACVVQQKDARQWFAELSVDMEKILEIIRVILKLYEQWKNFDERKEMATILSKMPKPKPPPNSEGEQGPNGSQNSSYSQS
T1 sequence (Q93074 whole entry partner): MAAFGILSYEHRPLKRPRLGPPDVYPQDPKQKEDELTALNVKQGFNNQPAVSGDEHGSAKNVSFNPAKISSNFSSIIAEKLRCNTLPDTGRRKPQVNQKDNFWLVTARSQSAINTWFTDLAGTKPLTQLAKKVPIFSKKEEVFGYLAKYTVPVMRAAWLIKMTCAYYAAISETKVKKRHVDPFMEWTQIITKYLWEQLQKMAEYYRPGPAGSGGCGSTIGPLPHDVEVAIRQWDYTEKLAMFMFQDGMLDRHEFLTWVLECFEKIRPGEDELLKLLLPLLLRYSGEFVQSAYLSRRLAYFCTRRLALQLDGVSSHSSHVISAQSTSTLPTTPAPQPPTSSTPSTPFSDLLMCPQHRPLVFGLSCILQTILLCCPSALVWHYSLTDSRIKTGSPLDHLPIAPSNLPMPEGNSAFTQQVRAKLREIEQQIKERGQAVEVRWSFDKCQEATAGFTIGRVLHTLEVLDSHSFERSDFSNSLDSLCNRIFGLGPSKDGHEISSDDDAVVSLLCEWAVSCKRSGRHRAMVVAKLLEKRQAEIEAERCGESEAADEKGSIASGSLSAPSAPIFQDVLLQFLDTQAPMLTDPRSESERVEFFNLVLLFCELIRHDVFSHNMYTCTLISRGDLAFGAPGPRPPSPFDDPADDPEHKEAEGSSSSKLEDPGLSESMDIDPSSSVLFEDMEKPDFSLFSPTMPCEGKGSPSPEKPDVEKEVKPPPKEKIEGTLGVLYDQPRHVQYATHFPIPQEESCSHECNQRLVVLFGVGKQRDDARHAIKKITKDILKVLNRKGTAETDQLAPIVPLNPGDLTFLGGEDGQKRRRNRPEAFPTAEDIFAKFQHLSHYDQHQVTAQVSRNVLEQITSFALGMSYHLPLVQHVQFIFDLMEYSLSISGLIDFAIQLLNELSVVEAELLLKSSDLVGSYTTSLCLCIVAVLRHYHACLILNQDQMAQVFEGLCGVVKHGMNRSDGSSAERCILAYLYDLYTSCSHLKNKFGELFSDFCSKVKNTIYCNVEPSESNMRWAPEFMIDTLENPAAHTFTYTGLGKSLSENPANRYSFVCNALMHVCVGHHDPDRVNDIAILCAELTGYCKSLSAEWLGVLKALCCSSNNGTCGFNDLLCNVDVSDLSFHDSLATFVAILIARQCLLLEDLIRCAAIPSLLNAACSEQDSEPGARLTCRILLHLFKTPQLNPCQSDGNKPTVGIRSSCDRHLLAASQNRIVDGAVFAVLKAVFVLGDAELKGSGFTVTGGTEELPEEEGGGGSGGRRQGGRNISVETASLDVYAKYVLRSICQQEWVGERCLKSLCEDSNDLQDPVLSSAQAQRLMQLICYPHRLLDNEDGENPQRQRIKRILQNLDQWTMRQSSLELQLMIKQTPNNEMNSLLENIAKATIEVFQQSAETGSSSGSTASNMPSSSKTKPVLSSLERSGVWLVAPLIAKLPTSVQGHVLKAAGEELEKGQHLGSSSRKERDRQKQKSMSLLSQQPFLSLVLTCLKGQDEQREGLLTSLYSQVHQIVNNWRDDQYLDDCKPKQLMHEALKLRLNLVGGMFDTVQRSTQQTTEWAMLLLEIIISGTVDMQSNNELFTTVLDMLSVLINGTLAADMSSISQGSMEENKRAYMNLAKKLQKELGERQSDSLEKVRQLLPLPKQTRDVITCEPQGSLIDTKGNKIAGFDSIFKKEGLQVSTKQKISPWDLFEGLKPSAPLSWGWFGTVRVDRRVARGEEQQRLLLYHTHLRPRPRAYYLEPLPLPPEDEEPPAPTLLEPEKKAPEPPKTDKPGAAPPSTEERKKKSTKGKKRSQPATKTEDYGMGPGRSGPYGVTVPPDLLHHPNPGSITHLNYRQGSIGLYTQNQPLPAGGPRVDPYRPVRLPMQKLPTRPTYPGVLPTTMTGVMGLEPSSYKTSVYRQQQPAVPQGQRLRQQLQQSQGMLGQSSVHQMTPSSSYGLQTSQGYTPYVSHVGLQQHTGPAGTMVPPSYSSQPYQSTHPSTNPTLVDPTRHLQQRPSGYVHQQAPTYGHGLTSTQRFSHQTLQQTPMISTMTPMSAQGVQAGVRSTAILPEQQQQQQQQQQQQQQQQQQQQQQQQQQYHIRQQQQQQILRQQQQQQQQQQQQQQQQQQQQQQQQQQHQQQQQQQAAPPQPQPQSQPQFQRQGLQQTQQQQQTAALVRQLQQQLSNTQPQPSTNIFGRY
CDK19/Cyclin C, sequence (Q9BWU1 whole entry): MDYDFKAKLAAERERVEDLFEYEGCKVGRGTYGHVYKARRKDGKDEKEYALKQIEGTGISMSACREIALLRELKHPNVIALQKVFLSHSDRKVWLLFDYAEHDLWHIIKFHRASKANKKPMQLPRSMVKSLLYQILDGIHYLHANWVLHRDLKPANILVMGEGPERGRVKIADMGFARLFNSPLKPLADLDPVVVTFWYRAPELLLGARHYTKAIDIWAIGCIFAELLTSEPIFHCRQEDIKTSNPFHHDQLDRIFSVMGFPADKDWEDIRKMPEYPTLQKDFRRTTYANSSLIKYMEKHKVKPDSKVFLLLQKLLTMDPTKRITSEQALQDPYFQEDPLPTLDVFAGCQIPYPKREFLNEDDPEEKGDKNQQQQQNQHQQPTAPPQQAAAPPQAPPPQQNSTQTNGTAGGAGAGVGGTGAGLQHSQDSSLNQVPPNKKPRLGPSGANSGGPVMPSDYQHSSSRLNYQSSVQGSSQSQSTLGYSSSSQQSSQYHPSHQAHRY
CDK19/Cyclin C, sequence (P24863 whole entry partner): as the sequence (P24863 whole entry partner) above
CDK8/Cyclin C, sequence (P49336 whole entry): as the sequence (P49336 whole entry) above
CDK8/Cyclin C, sequence (P24863 whole entry partner): as the sequence (P24863 whole entry partner) above
Haspin kinase, sequence (Q8TF76 484-798): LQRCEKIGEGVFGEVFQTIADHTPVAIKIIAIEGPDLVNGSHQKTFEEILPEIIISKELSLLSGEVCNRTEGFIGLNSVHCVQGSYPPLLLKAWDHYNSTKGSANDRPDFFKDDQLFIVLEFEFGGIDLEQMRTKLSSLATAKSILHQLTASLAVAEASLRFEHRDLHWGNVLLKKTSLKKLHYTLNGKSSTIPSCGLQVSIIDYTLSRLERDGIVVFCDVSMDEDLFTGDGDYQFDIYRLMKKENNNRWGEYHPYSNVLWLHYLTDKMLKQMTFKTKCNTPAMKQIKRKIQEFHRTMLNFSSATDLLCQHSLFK
intracellular HASPIN, sequence (Q8TF76 whole entry): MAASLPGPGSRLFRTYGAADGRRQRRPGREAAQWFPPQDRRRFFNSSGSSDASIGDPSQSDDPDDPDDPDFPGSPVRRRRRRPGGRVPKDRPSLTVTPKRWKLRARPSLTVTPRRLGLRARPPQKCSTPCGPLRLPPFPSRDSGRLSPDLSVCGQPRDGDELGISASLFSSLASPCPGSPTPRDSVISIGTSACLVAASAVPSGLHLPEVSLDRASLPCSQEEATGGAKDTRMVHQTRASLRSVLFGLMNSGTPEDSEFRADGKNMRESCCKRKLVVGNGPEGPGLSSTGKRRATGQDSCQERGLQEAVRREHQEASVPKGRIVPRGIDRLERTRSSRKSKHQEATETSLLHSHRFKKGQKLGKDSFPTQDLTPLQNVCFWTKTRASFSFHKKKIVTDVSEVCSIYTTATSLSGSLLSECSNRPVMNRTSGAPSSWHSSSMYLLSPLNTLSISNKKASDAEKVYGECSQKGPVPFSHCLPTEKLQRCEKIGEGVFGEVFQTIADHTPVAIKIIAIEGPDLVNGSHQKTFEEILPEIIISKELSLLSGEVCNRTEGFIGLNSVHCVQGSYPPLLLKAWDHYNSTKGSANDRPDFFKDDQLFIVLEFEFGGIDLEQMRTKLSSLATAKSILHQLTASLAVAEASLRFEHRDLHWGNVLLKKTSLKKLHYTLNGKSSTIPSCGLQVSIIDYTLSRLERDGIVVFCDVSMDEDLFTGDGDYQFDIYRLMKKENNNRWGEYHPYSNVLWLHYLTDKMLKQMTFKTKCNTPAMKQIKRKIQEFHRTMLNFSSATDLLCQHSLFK

Turning to `NC(=O)c1cc2c([nH]1)-c1ccncc1O[C@H]2C1CCCCC1` (single isomer, unassigned) [Example 70], the values for the half-inhibitory concentration (IC50) on CDK8/Cyclin C and at CDK19/Cyclin C were 8.5 nM and 7.14 nM, respectively. The EC50 on intracellular CDK8 [1] and on intracellular CDK8 [2] was less than 500 nM throughout. Besides, the GI50 is less than 1000 nM in the assay with MV4:11, 10000 to 100000 nM in the assay with MDA-MB-231, 1000 to 10000 nM in the assay with SW620 [3] and 1000 to 10000 nM with Molm13. In the assay with SW620 cells, the “effect in colony forming assay” value was “dose-dependent effect”.
Consider `CCCNc1ccc2ncc(-c3ccc4[nH]ncc4c3)n2n1` [CHR-6494], for which the “reduction of H3T3ph” value in assay [4] is “reduce H3T3ph”.
As for `CN(NC(=O)CC(=O)NN(C)C(=S)c1ccccc1)C(=S)c1ccccc1` [Elesclomol, elesclomol, reference compound], the concentration for 50% growth inhibition (GI50) with SW620 [5] turned out to be 250 nM; in the assay on MDAMB231 it was 250 nM; in the assay on A549, 250 nM; with SKMEL19, 250 nM; in the assay with BXPC-3 it was 62 nM.
For the compound `COc1ccccc1-c1c2c(n(CCF)c1C(N)=O)-c1ccncc1OC2(C)C` [Example 73], the IC50 on CDK8/Cyclin C worked out at 139 nM; at Haspin kinase, 1120 nM; at CDK19/Cyclin C, 97.3 nM. The EC50 at intracellular CDK8 [1] was less than 500 nM; at intracellular HASPIN, 500 to 10000 nM; in the assay with SW620 cells (Homo sapiens, SW-620, 264 h, read-out: mean EC50, colony forming assay), 5430 ± 297 nM. Besides, the “effect in colony forming assay” value in the assay with SW620 cells is listed as “dose-dependent effect”.
